Data on three molecules can be found in patent US11492361B2, “Compounds useful in HIV therapy” (GlaxoSmithKline Intellectual Property Development Limited, priority 2018, dated 2022).

Read-outs that look alike come from different tables or passages of the source.

Experiment [1] has as its system cell-associated HIV RNA (HIV gag RNA) in CD4+ T cells. Briefly: Cell associated HIV RNA (caRNA) assay. It counts as cell-based, human. Conditions: CD4+ T cells treated for 48 hours. The text has this: During the productive phase of the viral life cycle, HIV produces a large number of differentially spliced transcripts collectively termed cell-associated HIV RNA (ca-HIV RNA) within some cells that are infected. In HIV-infected individuals on suppressive antiretroviral therapy (ART), changes in the levels of caHIV RNA is an accepted surrogate measure of the efficacy of HIV latency reversal.
To measure ca-HIVRNA, peripheral blood mononuclear cells (PBMCs) are isolated from leukocytes obtained by continuous-flow leukapheresis. Total CD4^+ T cells were isolated from PBMCs by negative selection using the EasySep Human CD4^+ T cell Enrichment kit (StemCell, Vancouver, Canada) per the manufacturer's recommendations. Resting CD4^+ T cells are isolated by negative selection with an immunomagnetic column as described previously (25) and either cryopreserved immediately or maintained for two days in IMDM medium (Gibco), 10% FBS, 2 μg/mL IL-2 (Peprotech), and antiretrovirals to prevent viral expansion.
For SMACm treatment, three to five replicates of 2-5×10^6 CD4^+ T cells were treated for 48 hours at 37° C. in 1 mL of RPMI medium 1640, 10% FBS, 10 μg/mL of enfuvirtide (Sigma), and 200 nM rilpivirine. 10 nM phorbol 12-myristate 13-acetate (PMA; Sigma) with 1 μM ionomycin (Sigma) was used as a positive control for LRA activation and 0.2% DMSO vehicle was used as a negative control. Following treatment, cells were lysed and RNA and DNA were co-extracted using an AIIPrep 96 RNA/DNA kit (Qiagen, Valencia, Calif.) per the manufacturer's instructions, adjusting the volume of lysis buffer to 0.6 mL, adding an on-column DNase I treatment (Qiagen) and eluting RNA in 50 μL of water. […]
HIV absolute HIV gag RNA copies per reaction were determined using an HIV gag gBlock qPCR standard corresponding to the DNA sequence of the qPCR product (5′-[…]-3′ (SEQ ID NO: 4); Integrated DNA Technologies), and copies were normalized to cell counts as determined by bright field microscopy. […]

For the next experiment, the system named is NFKB2. Briefly: NFkB2 gene induction. It counts as cell-based, human. The following applies: normal donor CD4 T cells, 24h, read-out: NFkB2 gene induction EC50. How it is done:
5×10^5 normal donor CD4 T cells were treated for 24h with serial dilutions of compounds starting at 1.0 μM at 6 fold, 7 places. Total RNA was isolated using the RNEasy Mini kit (Qiagen) per the manufacturer's instructions. The following TaqMan primer probe sets were sourced from Applied Biosystems: Hs00174517_m1 (NFKB2) and Hs02800695 (HPRT1). TaqMan-based real-time PCR (Fast Virus 1-Step Master Mix, Applied Biosystems) was used to amplify host genes of interest. Gene expression was normalized to HPRT1 and comparative threshold cycle (CT) method (ΔΔCT) was used for relative fold change of gene expression as compared to untreated cells. The data was analyzed by QuantStudio3 Real-Time PCR System.

For `CN[C@H](C)C(=O)N[C@@H](C(=O)N1CCC[C@@H]1C(=O)N[C@@H]1c2ccccc2C[C@@H]1OCC#CC#CCO[C@@H]1Cc2ccccc2[C@H]1NC(=O)[C@H]1CCCN1C(=O)[C@H](NC(=O)[C@@H](C)NC)C1CCCCC1)C1CCCCC1` [AZD5582, reference compound], the “caRNA Lowest efficacious concentration observed” value in experiment [1] is reported as 10. The EC50 (as a rule, the concentration giving half of the maximal effect) in the experiment on NFKB2 was 0.028 µM.
With `CC[C@H](NC(=O)[C@H](C)NC)C(=O)N1C[C@@H](O)C[C@H]1Cc1c(-c2[nH]c3cc(F)ccc3c2C[C@@H]2C[C@H](O)CN2C(=O)[C@H](CC)NC(=O)[C@H](C)NC)[nH]c2cc(F)ccc12` [Birinapant, reference compound], in experiment [1], the “caRNA Lowest efficacious concentration observed” value was greater than 1000. In the experiment on NFKB2 (Homo sapiens), the EC50 was greater than 1 µM.
Take `CN[C@H](C)C(=O)N[C@@H]1CCS[C@@H]2CC(C)(C)C(C(=O)N[C@@H]3CCCc4ccccc43)N2C1=O` (stereo partly drawn) [SBI-0637142]: the “caRNA Lowest efficacious concentration observed” value in experiment [1] is greater than 1000. Moreover, in the experiment with NFKB2, the 50% effective concentration (EC50) is 18 µM.
